# Laboratory results from patent publication US20260285879A1, “CDK INHIBITOR AND CRYSTAL FORM OF PHARMACEUTICALLY ACCEPTABLE SALT THEREOF, AND USE THEREOF” (priority 2023, published 2026).
# Tests used:
# Hep3B(Rb−) = test: In vitro tumor cell proliferation inhibition (CTG test); assay type: cell-based, human; conditions: Hep3B(Rb−) liver cancer cells
# Description: (§1) The tumor cell strains were cultured in an incubator at 37° C. with 5% CO2. The cells were sub-cultured regularly, and those in the logarithmic growth phase were taken for plating. The cells were stained with trypan blue and the viable cells were counted. The cell concentration was adjusted to an appropriate level. The cell suspension was added to each well of the culture plate, and the culture medium without cells was added to the blank control wells. The culture plate was incubated overnight in an incubator at 37° C., 5% CO2, and 100% RH. […] The compound working solution was added to the cell culture plate, and DMSO at the same final concentration was added to the solvent control wells. Then the plate was returned to the incubator for 4-7 days of culture. The cell viability was detected according to the instructions of the Promega CellTiter-Glo (CTG) Luminescent Cell Viability Assay Kit (Promega-G7573).
# (§2) The inhibition rate (IR) of the test compound was calculated using the following equation: […]
# (§3) The inhibition rates of the compound at different concentrations were calculated in Excel, then the inhibition curve was plotted using GraphPad Prism software and relevant parameters, including the minimum inhibition rate, maximum inhibition rate, and IC50 were calculated. The IC50 was calculated using the following equation:
# (§4) [formula] • X: log (concentration) • Y: response value, negatively correlated with X • HillSlope: slope factor
# HT-29 = test: as above; assay type: cell-based, human; conditions: Rb+ colorectal cancer cells HT-29
# Description: as §1, §2, §3, §4
# MDA-MB-468 (Rb−) = test: as above; assay type: cell-based, human; conditions: 4-7 days
# Description: as §1, §2, §3, §4
# Huh-7 = test: as above; assay type: cell-based, human; conditions: Rb+ liver cancer cells Huh-7
# Description: as §1, §2, §3, §4
# MV-4-11 = test: as above; assay type: cell-based, human; conditions: hematological tumor cells MV-4-11
# Description: as §1, §2, §3, §4
# HCT116 = test: as above; assay type: cell-based, human; conditions: Rb+ colorectal cancer cells HCT116
# Description: as §1, §2, §3, §4
# SK-MEL-5 = test: as above; assay type: cell-based, human; conditions: melanoma SK-MEL-5
# Description: as §1, §2, §3, §4
# COLO205 = test: as above; assay type: cell-based, human; conditions: Rb+ colorectal cancer cells COLO205
# Description: as §1, §2, §3, §4
# MDA-MB-453 = test: as above; assay type: cell-based, human; conditions: 4-7 days
# Description: as §1, §2, §3, §4
# JHH-7 = test: as above; assay type: cell-based, human; conditions: Rb+ liver cancer cells JHH-7
# Description: as §1, §2, §3, §4
# A2780 = test: as above; assay type: cell-based, human; conditions: ovarian cancer cells A2780
# Description: as §1, §2, §3, §4
# NCI-H211 = test: as above; assay type: cell-based, human; conditions: small cell lung cancer cells NCI-H211
# Description: as §1, §2, §3, §4
# MOLM-13 = test: as above; assay type: cell-based, human; conditions: hematological tumor cells MOLM-13
# Description: as §1, §2, §3, §4
# [1] = Anhydrous crystalline form transformation test; assay type: physicochemical; conditions: mixed sample of equal amounts of crystalline form A-I and A-IV
structure (smiles),measurement,setting,value
CC(=O)c1c(C)c2cnc(Nc3ccc4c(c3)OC[C@@H]3CN(C5CCN(C)CC5)CCN43)nc2n(C2CCCC2)c1=O [Compound A],inhibitory effect,Hep3B(Rb−),significant inhibitory effect
same,maximum inhibition rate,Hep3B(Rb−),exceeding 99%
same,inhibitory activity,HT-29,good inhibitory activity
same,Maximum Inhibition Rate (%),MDA-MB-468 (Rb−),exceeding 99%
same,inhibitory activity,Huh-7,good inhibitory activity
same,inhibitory activity,MV-4-11,good inhibitory activity
same,inhibitory activity,HCT116,good inhibitory activity
same,inhibitory activity,SK-MEL-5,good inhibitory activity
same,inhibitory activity,COLO205,good inhibitory activity
same,Maximum Inhibition Rate (%),MDA-MB-453,~100%
same,inhibitory activity,JHH-7,good inhibitory activity
same,inhibitory activity,A2780,good inhibitory activity
same,inhibitory activity,NCI-H211,good inhibitory activity
same,inhibitory activity,MOLM-13,good inhibitory activity
same,Experimental results (crystalline form by XRPD),"[1]; n-Butanol/Anisole (v:v = 1:1), 25° C.",form A-I
same,Experimental results (crystalline form by XRPD),"[1]; n-Butanol/Anisole (v:v = 1:1), 37° C.",form A-I
same,Experimental results (crystalline form by XRPD),"[1]; suspension in n-Butanol, 25° C.",form A-I
same,Experimental results (crystalline form by XRPD),"[1]; suspension in n-Butanol, 37° C.",form A-I
